“And” between values parts separate entries of the source, which are not always exact repeats. Equal values may be shown once. The source made the active and inactive calls. The rule behind the calls is not given here.
Assays:
Canis lupus familiaris = species: Canis lupus familiaris; test: Inhibition of Mongrel dog ventricular muscle cAMP phosphodiesterase using adenosine 3',5' monophosphate as substrate at 100 uM by scintillation counting analysis in presence of [8-14C]adenosine relative to control
Rattus norvegicus [1] = test: Antiallergic activity in Sprague-Dawley rat assessed as inhibition of ovalbumin-induced wheal formation at 25 mg/kg, ip administered 5 mins prior to ovalbumin challenge measured after 30 mins by passive cutaneous anaphylaxis assay relative to control; assay type: functional; settings: route intraperitoneal; for inhibition in vivo at 25 mg/kg: Rattus norvegicus, Sprague-Dawley, ip
[2] = Antiallergic activity in antiovalbumin serum sensitized guinea pig lung slices assessed as inhibition of ovalbumin-induced histamine release at 100 uM preincubated for 5 mins followed by ovalbumin challenge measured after 15 mins by fluorometric analysis relative to control; assay type: functional, Cavia porcellus; settings: for inhibition at 100 µM: Cavia porcellus, Lung
Rattus norvegicus [3] = test: Antiallergic activity in Sprague-Dawley rat assessed as inhibition of ovalbumin-induced wheal formation at 25 mg/kg, po administered 10 mins prior to ovalbumin challenge measured after 30 mins by passive cutaneous anaphylaxis assay relative to control; assay type: functional
Rattus norvegicus [4] = test: Antiallergic activity in Sprague-Dawley rat assessed as inhibition of serotonin-induced wheal formation at 25 mg/kg, ip administered 5 mins prior to serotonin challenge measured 5 mins post serotonin challenge relative to control; assay type: functional
Rattus norvegicus [5] = test: Antiallergic activity in Sprague-Dawley rat assessed as inhibition of ovalbumin-induced wheal formation at 6 mg/kg, ip administered 5 mins prior to ovalbumin challenge measured after 30 mins by passive cutaneous anaphylaxis assay relative to control; assay type: functional; settings: route intraperitoneal
Rattus norvegicus [6] = test: Antiallergic activity in ip dosed Sprague-Dawley rat assessed as inhibition of ovalbumin-induced wheal formation administered 5 mins prior to ovalbumin challenge measured after 30 mins by passive cutaneous anaphylaxis assay; assay type: functional
[7] = Antiallergic activity in antiovalbumin serum sensitized guinea pig lung slices assessed as inhibition of ovalbumin-induced histamine release at 1.5 mM preincubated for 5 mins followed by ovalbumin challenge measured after 15 mins by fluorometric analysis relative to control; assay type: functional; settings: Cavia porcellus
[8] = Antiallergic activity in antiovalbumin serum sensitized guinea pig lung slices assessed as inhibition of ovalbumin-induced histamine release at 0.3 uM preincubated for 5 mins followed by ovalbumin challenge measured after 15 mins by fluorometric analysis relative to control; assay type: functional; settings: Cavia porcellus

| inhibition (Canis lupus familiaris) | SMILES | inhibition in vivo at 25 mg/kg (Rattus norvegicus [1]) | inhibition at 100 µM [2] | further results |
| --- | --- | --- | --- | --- |
| 33% | COc1cc2c(cc1OC)C(c1nccc3cc(OC)c(OC)cc13)OC2=O (stereo unspecified) | 16% |  |  |
| 56% | COc1cc2c(cc1OC)C(c1ccccc1OC)=NCC2 | 36% |  |  |
| 7% | c1ccc(C2NCCc3ccccc32)cc1 (stereo unspecified) | 17% | 46% |  |
| 44% | Clc1ccc2c(c1)C(c1ccccc1)=NCC2 | 34% | 0% |  |
| 0% | CCOC(=O)C(=O)N1CCc2cc(OC)c(OCc3ccccc3)cc2C1c1ccccc1 (stereo unspecified) | 18% | 0% |  |
| 42% | c1ccc(C2=NCCc3ccccc32)cc1 | 0% | 17% |  |
| 4% | Cc1ccc2c(c1)C(c1ccccc1)NCC2 (stereo unspecified) | 51% | 0% | inhibition in vivo at 25 mg/kg (Rattus norvegicus [3]): 17% |
| 34% | COc1cc2c(cc1OCc1ccccc1)C(c1ccccc1)NCC2 (racemic) | 29% | 56% | inhibition in vivo at 25 mg/kg (Rattus norvegicus [4]; route intraperitoneal): 29% |
|  | O=C(O)c1cc(=O)c2c(OCC(O)COc3cccc4oc(C(=O)O)cc(=O)c34)cccc2o1 [CROMOLYN SODIUM] |  |  | inhibition in vivo at 6 mg/kg (Rattus norvegicus [5]): 52% |
| 71% | COc1cc2c(cc1OC)C(c1ccc(C(C)(C)C)cc1)NCC2.Cl (stereo unspecified) | 37% | 13% | ED50 (Rattus norvegicus [6]): 24 mg/kg; inhibition (Rattus norvegicus [4]): inactive; inhibition in vivo at 25 mg/kg (Rattus norvegicus [3]): 9% |
| 95% | COc1cc2c(cc1OCc1ccccc1)C(c1ccccc1)=NCC2 | 36% | 18% |  |
| 84% | COc1cc2c(cc1OC)C(c1cccc(C(F)(F)F)c1)NCC2 (stereo unspecified) | 29% | 55% |  |
|  | Cn1c(=O)c2nc[nH]c2n(C)c1=O [THEOPHYLLINE] |  |  | inhibition at 1500 µM [7]: 50% |
| 53% | Cc1ccc2c(c1)C(c1ccccc1)=NCC2 | 23% | 6% |  |
| 64% | COc1cc2c(cc1OC)C1C(=O)Cc3ccccc3CN1CC2 (stereo unspecified) | 18% | 43% |  |
| 83% | COc1cc2c(cc1O)C(c1ccccc1)=NCC2 | 46% | 36% |  |
| 34% | COc1cc2c(cc1OC)C(c1ccccc1OC)NCC2 (stereo unspecified) | 24% | 46% |  |
| 55% | COc1cc2c(cc1OC)C(Cc1cc(OCc3ccccc3)c(OC)cc1Br)NCC2 (racemic) | 0% | 33% |  |
|  | COc1cc2c(cc1OC)C(c1ccccc1)=NCC2 [listing 1 of 2 here] |  |  | inhibition (INH) (Rattus norvegicus [1]): 31%; inhibition (INH) [2]: 91% |
| 19% | COc1cc2c(cc1O)C(c1ccccc1)NCC2 (stereo unspecified) | 43% | 25% | inhibition in vivo at 25 mg/kg (Rattus norvegicus [3]): 6% |
|  | CC(C)NCC(O)c1ccc(O)c(O)c1 (stereo unspecified) [ISOPROTERENOL] |  |  | inhibition at 0.3 µM [8]: 49% |
| 70% | COc1cc2c(cc1OC)C(C1CCCCC1)=NCC2 | 18% |  |  |
| 12% | COc1ccc2c(c1)C(c1ccccc1)NCC2.Cl (stereo unspecified) | 41% | 60% | ED50 (Rattus norvegicus [6]): 24 mg/kg; inhibition (Rattus norvegicus [4]): inactive; inhibition in vivo at 25 mg/kg (Rattus norvegicus [3]): 40% |
|  | CI.COc1cc2c(cc1OC)C(c1ccccc1)=NCC2 | 22% |  | inhibition (INH) [2]: 63% |
| 46% | COc1cc2c(cc1OC)C(c1ccccc1)NCC2.Cl (stereo unspecified) | 52% | 49% | ED50 (Rattus norvegicus [6]): 34 mg/kg; inhibition (Rattus norvegicus [4]): inactive; inhibition in vivo at 25 mg/kg (Rattus norvegicus [3]): 7% |
| 45% | COc1cc2c(cc1OC)C(Cc1cc(OC)c(OCc3ccccc3)cc1Br)NCC2 (racemic) | 0% | 27% |  |
| 95% | COc1cc2c(cc1OC)C(c1cccc(C(F)(F)F)c1)=NCC2 | 35% | 16% |  |
| 97% and 91% | COc1cc2c(cc1OC)C(c1ccccc1)=NCC2 [listing 2 of 2 here] |  |  |  |
| 19% | COc1cc2c(cc1OC)C(C1CCCCC1)NCC2 (stereo unspecified) | 49% | 66% | inhibition in vivo at 25 mg/kg (Rattus norvegicus [3]): 8% |

| SMILES | inhibition (Canis lupus familiaris) | inhibition in vivo at 25 mg/kg (Rattus norvegicus [1]) | inhibition at 100 µM [2] | further results |
| --- | --- | --- | --- | --- |
| c1ccc2c(c1)CCNC2 | 0% | 18% | 31% |  |
| Cn1c(=O)c2[nH]cnc2n(C)c1=O | 51% |  |  |  |
